# Assay results as given in article PMC7859449, “Short Chain (≤C4) Esterification Increases Bioavailability of Rosmarinic Acid and Its Potency to Inhibit Vascular Smooth Muscle Cell Proliferation” (Frontiers in Pharmacology, 2021).
# Where “and” joins values, the source holds several entries; their conditions need not be identical. Identical values can stand only once. Like-named read-outs stand apart in the source and are kept apart here.
# What was measured:
# [1] = set-up: method as in Baba et al., 2005; conditions: human; ref Baba et al., 2005; cited from earlier work
# [2] = set-up: method as in Nakazawa and Ohsawa, 1998; conditions: rat; ref Nakazawa and Ohsawa, 1998; cited from earlier work
# [3] = Stability of RA QC samples under different storage conditions; type: physicochemical, rat
# [4] = set-up: method as in earlier work; conditions: rats and humans; ref Nakazawa and Ohsawa, 1998; Baba et al., 2005; Wang et al., 2017; cited from earlier work
# [5] = test system: PDGF-BB-induced VSMC proliferation; experiment: Proliferation assay (resazurin conversion) in PDGF-BB-stimulated VSMC; type: cell-based, rat; conditions: for activity at 10 µM / IC50: Rattus norvegicus, resazurin; for activity at 10 µM: VSMC, 10 μmol/L, PDGF-BB 20 ng/mL 48 h, read-out: VSMC proliferation at 10 μmol/L (relative to vehicle control, RU); for IC50: PDGF-BB-induced VSMC proliferation
# Description: Primary VSMC were cultivated in DMEM-F12 (1:1) supplemented with 20% fetal bovine serum, 30 μg/ml gentamicin, and 15 ng/mL amphotericin B at 37°C in an incubator with 5% CO2 flow in a humidified atmosphere. Passages 4 to 12 were used in experiments.
# Resazurin conversion to fluorescent resorufin was used as a measure for cell proliferation. Primary VSMC were seeded at 5 × 10^3 cells/well in a 96-well plate to grow for the next 24 h. Cells were then synchronized into G0 phase by serum deprivation for 24 h, pretreated with compounds for 30 min and stimulated with 20 ng/mL PDGF-BB for the next 48 h. After one washing step, cells were incubated in starvation medium containing 10 μg/mL resazurin for 2 h, and changes in fluorescence were monitored in a Tecan Spark (Tecan Group, Männedorf, Switzerland) plate reader at an excitation wavelength of 535 nm and an emission wavelength of 580 nm.
# [6] = test system: PDGF-BB-induced VSMC; experiment: Cell cycle analysis (PI staining, flow cytometry); type: cell-based, rat; conditions: 3 μmol/L, PDGF-BB 16 h
# Description: Flow cytometry was used to analyze cell cycle progression. VSMC were seeded at a density of 10^5 cells per well in 12-well plates. After rendered quiescent, cells were treated with increasing concentrations of RAME (7), RAET (8), RABU (9) and RAOCT (10) or with 0.1% DMSO for 30 min followed by stimulation with 20 ng/mL PDGF-BB for 16 h. Cells were collected by trypsinization, washed and resuspended in a hypotonic propidium iodide (PI) solution containing 0.1% (v/v) Triton X-100, 0.1% (w/v) sodium citrate, and 50 μg/mL PI. PI-stained nuclei were analyzed on a FACSCalibur (BD Biosciences, Vienna, Austria) flow cytometer at an excitation wavelength of 488 nm and an emission wavelength of 585 nm.
# FIGURE 5 Ethyl, butyl and octyl esters of rosmarinic acid (RA) inhibit the proliferation of VSMC by exerting the same mechanism of action as the methyl ester (A) Quiescent VSMC were treated with 0.1% DMSO or increasing concentrations of RA esters as indicated for 30 min, stimulated with 20 ng/mL PDGF-BB for 16 h and the cell cycle progression was analyzed using PI staining and flow cytometry. […]
# [7] = test system: VSMC; experiment: Cytotoxicity assay (LDH release) in PDGF-induced VSMC; type: cell-based; conditions: PDGF-BB 24 h
# Description: Increased lactate dehydrogenase (LDH) release is an indicator for the loss of cell membrane integrity, associated with cell death. Determination of LDH release in response to increasing concentrations of RAME (7), RAET (8), RABU (9), RAOCT (10) and RADOD (11) was performed as previously described ([Liu et al., 2018]).
# FIGURE 4 Cytotoxicity of RA esters in PDGF-induced VSMC. VSMC were pretreated with 0.1% DMSO or increasing concentrations of RA esters as indicated for 30 min, stimulated with 20 ng/mL PDGF-BB for 24 h, and released LDH was determined. Digitonin (80 μmol/L) was used as a positive control. Graphs show means ± SD out of 3 (RAME, RAET and RABU) and 4 (RAOCT and RADOD) independent experiments (n.s., not significant, p > 0.05, **p < 0.01, ***p < 0.001, ANOVA/Bonferroni, “vehicle with PDGF-BB” vs. “RA ester with PDGF-BB”).
# [8] = test system: cultured VSMC; experiment: Intracellular bioavailability of RA esters (LC-MS/MS of cytoplasmic fractions); type: in vitro ADME, rat; conditions: for intracellularly accumulated concentration: after 0.5 h exposure to 10 μmol/L; for intracellular level relative to those of RAME and RAET: exposure to 10 μmol/L; for intracellular concentration as share of applied concentration: 10 μmol/L applied; for intracellular content normalized to protein: at 8.5 h
# Description: After cells had been lysed and membranes had been removed by centrifugation, as described in the previous section, half of the cytoplasmic fractions were collected in 1.5 mL eppendorf tubes, diluted with methanol in 1:3 ratios and centrifuged at 5,600 × g for 20 min to remove proteins. Supernatants were then subjected to LC-MS/MS analysis to determine the cytoplasmic concentrations of RA esters at each treatment time point up to 16 h PDGF-BB stimulation. Cell culture media were also collected prior to the lysis procedure, diluted with methanol in a manner described above and subjected to LC-MS/MS. […] Intracellular concentrations of RA esters were normalized to protein concentrations at each treatment time point. Details of the quantification method are shown in the Supplementary Material.
# FIGURE 6 Esters of rosmarinic acid with longer alkyl groups show increased intracellular bioavailability.
# [9] = test system: CDK4; set-up: method as in Liu et al., 2018; conditions: ref Liu et al., 2018; cited from earlier work
# [10] = test system: CDK2; set-up: method as in Liu et al., 2018; conditions: CDK2 kinase activity in vitro; ref Liu et al., 2018; cited from earlier work
# [11] = Long-term stability (15 d at -20°C), nominal 2 ng/mL
# [12] = Long-term stability (15 d at -20°C), nominal 800 ng/mL
# [13] = Post-preparative stability (8 h at 4°C), nominal 2 ng/mL
# [14] = Post-preparative stability (8 h at 4°C), nominal 800 ng/mL
# [15] = Short-term stability (8 h at room temperature), nominal 2 ng/mL
# [16] = Short-term stability (8 h at room temperature), nominal 800 ng/mL
# [17] = Stock Solution Stability (8 h at room temperature), nominal 2 ng/mL
# [18] = Stock Solution Stability (8 h at room temperature), nominal 800 ng/mL
smiles,measurement,setting,value
"O=C(/C=C/c1ccc(O)c(O)c1)O[C@H](Cc1ccc(O)c(O)c1)C(=O)O [RA (6), Rosmarinic acid]",cumulative proportions of all RA metabolites detected in urine (of the administered dose),[1],~6%
same,cumulative proportions of all RA metabolites detected in urine (of the administered dose),[2],about 32%
same,Measured Concentration,"[3]; Freeze-thaw stability (three cycles), nominal 2 ng/mL",2.14 ± 0.09 ng/mL
same,Measured Concentration,"[3]; Freeze-thaw stability (three cycles), nominal 800 ng/mL",786.67 ± 50.06 ng/mL
same,Measured Concentration,[3]; [11],2.18 ± 0.09 ng/mL
same,RE,[3]; [11],8.83%
same,Measured Concentration,[3]; [12],770.67 ± 50.01 ng/mL
same,RE,[3]; [12],-3.67%
same,Measured Concentration,[3]; [13],1.88 ± 0.13 ng/mL
same,RE,[3]; [13],-5.83%
same,Measured Concentration,[3]; [14],737.00 ± 8.00 ng/mL
same,RE,[3]; [14],-7.88%
same,Measured Concentration,[3]; [15],1.79 ± 0.07 ng/mL
same,RE,[3]; [15],-10.67%
same,Measured Concentration,[3]; [16],762.33 ± 27.75 ng/mL
same,RE,[3]; [16],-4.71%
same,Measured Concentration,[3]; [17],1.90 ± 0.08 ng/mL
same,RE,[3]; [17],-4.83%
same,Measured Concentration,[3]; [18],782.33 ± 27.43 ng/mL
same,RE,[3]; [18],-2.21%
same,amount of orally ingested RA absorbed,[4],up to 1.69%
same,activity at 10 µM,[5],78.1 ± 16.7%
"CCCCCCCCOC(=O)[C@@H](Cc1ccc(O)c(O)c1)OC(=O)/C=C/c1ccc(O)c(O)c1 [RAOCT (10), rosmarinic acid octyl ester]",percentage of cells in G0/G1 compared to vehicle control,[6],significantly higher percentage of cells in G0/G1
same,cell death (LDH release),[7]; 30 μmol/L,marked but not significant increase in LDH production
same,LDH release,[7]; 3 and 10 μmol/L,"distinct LDH release, which however did not reach significance"
same,concentration within VSMC,"[8]; 10 μmol/L, 16.5 h time point",remained relatively high
same,intracellularly accumulated concentration,[8],about 6 μmol/L
same,intracellular level relative to those of RAME and RAET,[8],~3 fold and ~4 fold
same,activity at 10 µM,[5],33.8 ± 14.7%
same,IC50,[5],2.22 µM
"COc1cc(/C=C/C(=O)O)ccc1O [Compound 4, ferulic acid, reference compound]",activity at 10 µM,[5],107 ± 17.3%
"CCOC(=O)[C@@H](Cc1ccc(O)c(O)c1)OC(=O)/C=C/c1ccc(O)c(O)c1 [RAET (8), rosmarinic acid ethyl ester]",cell death (LDH release),[7]; up to 30 μmol/L,did not induce cell death
same,intracellular concentration as share of applied concentration,[8],about 20%
same,intracellular content normalized to protein,[8]; 10 μmol/L,around 2 pmol per µg of protein
same,activity at 10 µM,[5],32.8 ± 8.1%
same,IC50,[5],3.37 µM
"O=C(O)CCc1cccc(O)c1 [Compound 5, m-hydroxyphenylpropionic acid, reference compound]",activity at 10 µM,[5],120 ± 27.8%
"CCCCOC(=O)[C@@H](Cc1ccc(O)c(O)c1)OC(=O)/C=C/c1ccc(O)c(O)c1 [RABU (9), rosmarinic acid butyl ester]",percentage of cells in G0/G1 compared to vehicle control,[6],significantly higher percentage of cells in G0/G1
same,cell death (LDH release),[7]; up to 30 μmol/L,did not induce cell death
same,intracellular concentration as share of applied concentration,[8],60%
same,intracellular content normalized to protein,[8]; 10 μmol/L,around 2 pmol per µg of protein
same,intracellularly accumulated concentration,[8],about 6 μmol/L
same,intracellular level relative to those of RAME and RAET,[8],~3 fold
same,activity at 10 µM,[5],30.8 ± 5.2%
same,IC50,[5],2.84 µM
"O=C(O)/C=C/c1cccc(O)c1 [Compound 3, m-coumaric acid, reference compound]",activity at 10 µM,[5],107 ± 15.2%
"CCCCCCCCCCCCOC(=O)[C@@H](Cc1ccc(O)c(O)c1)OC(=O)/C=C/c1ccc(O)c(O)c1 [RADOD (11), rosmarinic acid dodecyl ester]",cell death (LDH release),[7]; 30 μmol/L,"comparable to that of the positive control, digitonin"
same,VSMC proliferation,[5]; 1 μmol/L (data not shown),unaffected
same,VSMC proliferation,[5]; 3 μmol/L (data not shown),completely abrogated
same,activity at 10 µM,[5],5.4 ± 8.1%
"COC(=O)[C@@H](Cc1ccc(O)c(O)c1)OC(=O)C=Cc1ccc(O)c(O)c1 [RAME (7), rosmarinic acid methyl ester]",activity of CDK4,[9],affected only at much higher concentrations
same,IC50,[10],11.4 µM
same,cell death (LDH release),[7]; up to 30 μmol/L,did not induce cell death
same,intracellular concentration as share of applied concentration,[8],about 20%
same,intracellular content normalized to protein,[8]; 10 μmol/L,around 2 pmol per µg of protein
same,activity at 10 µM,[5],41.5 ± 10.9%
same,IC50,[5],7.9 µM
